The target of data set [1] is T1, human amnionic whole cell cyclooxygenase-2 (WISH cells) (Homo sapiens, UniProt P35354).
T1 construct: endogenous in cells; host or cells: human amnionic WISH cells, induced with IL-1beta
T1 sequence (P35354 18-604): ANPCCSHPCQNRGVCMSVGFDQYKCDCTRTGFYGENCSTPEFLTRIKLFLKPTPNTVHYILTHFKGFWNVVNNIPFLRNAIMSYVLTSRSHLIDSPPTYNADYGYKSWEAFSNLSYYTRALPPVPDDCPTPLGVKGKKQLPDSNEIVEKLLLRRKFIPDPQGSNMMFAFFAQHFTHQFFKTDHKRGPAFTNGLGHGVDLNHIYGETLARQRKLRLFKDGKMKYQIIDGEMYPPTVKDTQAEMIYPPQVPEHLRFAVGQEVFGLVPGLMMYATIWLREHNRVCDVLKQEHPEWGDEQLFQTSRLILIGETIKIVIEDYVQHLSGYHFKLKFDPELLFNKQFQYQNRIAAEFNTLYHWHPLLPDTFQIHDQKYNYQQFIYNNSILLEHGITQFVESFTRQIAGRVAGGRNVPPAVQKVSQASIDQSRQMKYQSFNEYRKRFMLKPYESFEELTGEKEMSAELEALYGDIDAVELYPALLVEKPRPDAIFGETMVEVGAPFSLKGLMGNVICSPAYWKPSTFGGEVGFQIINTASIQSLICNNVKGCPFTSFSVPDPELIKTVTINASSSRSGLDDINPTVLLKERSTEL
Put plainly: IL-1β induced PGE2 production in WISH cells. The data set is classed as cell-based. To be noted: for IC50: read-out: Wish IC50 (parenthetical value). The method in brief:
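Confluent (80%) WISH cells were stimulated with 5 ng/ml IL-1β in serum-free Neuman-Tytell medium, with or without test compound in DMSO (0.01% v/v). PGE2 in the culture medium was measured by EIA against standards prepared in the same medium, read by optical density.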

Data set [2] has as its target T2, recombinant human Cox-2 (r-hu Cox-2) (Homo sapiens, UniProt P35354).
T2 construct: made in house; host or cells: baculovirus/Sf9 insect cells (microsomes)
T2 sequence (P35354 18-604): T1 sequence (P35354 18-604)
Put plainly: Recombinant human PGHS-2 enzyme assay (RHUCX2). Format: biochemical. To be noted: for IC50: read-out: RHUCX2 IC50 (parenthetical value). The method, boiled down:
(§1)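 Prostaglandin biosynthesis was measured as PGE2 output, read by enzyme immunoassay after a 2.5-minute room-temperature reaction stopped with HCl and neutralized with NaOH.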

The target in data set [3] is T3, recombinant human Cox-1 (r-hu Cox1) (Homo sapiens, UniProt P23219).
T3 construct: made in house; host or cells: baculovirus/Sf9 insect cells (microsomes)
Put plainly: Recombinant human PGHS-1 enzyme assay (RHUCX1). The data set is classed as biochemical. As to conditions: for inhibition at 100 µM / inhibition at 1 µM / inhibition at 10 µM: read-out: RHUCX1 % Inh. at Dose; for IC50: read-out: RHUCX1 IC50 (parenthetical value). The method, boiled down:
as §1

Data set [4] addresses T4, Human Whole Platelet Cyclooxygenase-1 (Homo sapiens, UniProt P23219).
T4 construct: from tissue; host or cells: human blood: isolated platelets (A4) or heparinised whole blood (A9)
The data set is described as follows: Human Whole Platelet Cyclooxygenase-1 assay (HWPX). Format: cell-based. As to conditions: for IC50: read-out: HWPX IC50 (parenthetical value). The protocol:
Blood from normal healthy volunteers is collected into tubes containing ACD (acid citrate dextrose) as the anticoagulant. This blood is centrifuged at 175×g to prepare platelet rich plasma. The platelet rich plasma is then centrifuged at 100×g to pellet the white blood cells, leaving the platelets in the supernatant. The supernatant is layered on a cushion of 0.7 mL of 10% bovine serum albumin in Tyrodes solution (Gibco; Grand Island, N.Y.) and then centrifuged at 1000×g. The resulting supernatant from this centrifuigation is then removed and 11 mL of Tyrodes solution is added to the remaining pellet of platelets. The platelets are then aliquoted at 120 μl into a 96 well plate. Experimental compounds are added and allowed to pre-incubate for 10 minutes. At the end of this pre-incubation period, the calcium ionophore A23187 is added to a final concentration of 8.8 μM and the incubation is continued for ten minutes. The reaction is stopped by adding cold 6 mM EDTA, the incubation mixture is centrifuged at 220×g, and the supernatants are then analyzed for thromboxane using a commercial kit from Cayman Chemical (Ann Arbor, Mich.

[5] abbreviates: 0.1 μM, read-out: RHUCX2 % Inh. at Dose.
Setting [6] is: 1 μM, read-out: RHUCX2 % Inh. at Dose.
The mark [7] stands for this setting: 10 μM, read-out: HWPX % Inhib. at Dose.
The mark [8] stands for this setting: 0.3 μM, read-out: HWPX % Inhib. at Dose.

The values that follow come from patent publication US20020028938A1, “Prostaglandin endoperoxide H synthase biosynthesis inhibitors” (priority 1997, published 2002).

T3 sequence (P23219 24-599): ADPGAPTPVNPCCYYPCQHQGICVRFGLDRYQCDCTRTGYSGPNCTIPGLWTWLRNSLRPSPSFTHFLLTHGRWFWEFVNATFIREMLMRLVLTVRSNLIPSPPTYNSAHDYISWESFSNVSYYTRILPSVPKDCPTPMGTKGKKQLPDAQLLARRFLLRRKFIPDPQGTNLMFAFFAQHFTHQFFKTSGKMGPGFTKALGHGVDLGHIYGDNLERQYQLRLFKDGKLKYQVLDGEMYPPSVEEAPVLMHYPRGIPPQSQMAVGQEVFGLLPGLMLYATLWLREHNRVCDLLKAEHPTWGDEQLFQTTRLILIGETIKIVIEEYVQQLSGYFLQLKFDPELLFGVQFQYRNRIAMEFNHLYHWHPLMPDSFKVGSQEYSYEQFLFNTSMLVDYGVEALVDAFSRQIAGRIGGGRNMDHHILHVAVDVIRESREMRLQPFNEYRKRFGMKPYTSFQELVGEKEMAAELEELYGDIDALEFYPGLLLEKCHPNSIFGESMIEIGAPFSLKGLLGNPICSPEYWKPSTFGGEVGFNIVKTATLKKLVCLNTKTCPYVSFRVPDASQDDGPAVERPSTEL
T4 sequence (P23219 24-599): as above

On to `CS(=O)(=O)c1ccc(-c2cnn(Cc3ccccc3)c(=O)c2-c2ccc(Cl)cc2)cc1` [Example 53, 2-Benzyl-4-(4-chlorophenyl)-5-[4-(methylsulfonyl)phenyl]-3(2H)-pyridazinone], for which the melting point is 157 to 159 °C. Moreover, the inhibition at 0.01 µM in data set [1] (0.01 μM, read-out: Wish % Inhib. at Dose) stood at 44%. The inhibition at 0.1 µM in data set [1] (0.1 μM, read-out: Wish % Inhib. at Dose) worked out at 90%. For the same molecule, in data set [2] (setting [5]), the inhibition at 0.1 µM stood at 77%. The inhibition at 1 µM in data set [2] (setting [6]) is 99%. The inhibition at 100 µM in data set [3] (100 μM) turned out to be 10%. Also, the inhibition at 1 µM in data set [4] (1 μM, read-out: HWPX % Inhib. at Dose) turned out to be 8%. The inhibition at 10 µM in data set [4] (setting [7]) turned out to be 78%.
In turn, `NS(=O)(=O)c1ccc(-c2cnn(-c3ccc(F)cc3)c(=O)c2-c2ccc(F)cc2)cc1F` [Example 72, 2,4-Bis-(4-fluorophenyl)-5-[3-fluoro-4-(aminosulfonyl)phenyl]-3(2H)-pyridazinone] had a melting point of 222 to 224 °C. Also, the 50% inhibitory concentration (IC50) in data set [1] is 72 nM. In data set [2] (setting [5]), the inhibition at 0.1 µM is 18%. Besides, the inhibition at 1 µM in data set [2] (setting [6]) came out at 65%. Further, the inhibition at 100 µM in data set [3] (100 μM) is 0%. In addition, the IC50 in data set [4] was found to be 25000 nM.
Molecule `CS(=O)(=O)c1ccc(-c2cnn(-c3ccc(Cl)s3)c(=O)c2-c2ccc(Cl)cc2)cc1` [Example 100, 2-(5-Chloro-2-thienyl)-4-(4-chlorophenyl)-5-[4-(methylsulfonyl)phenyl]-3(2H)-pyridazinone] yielded a melting point of 249 to 251 °C. The IC50 in data set [1] amounted to 20 nM. Besides, in data set [2] (setting [5]), the inhibition at 0.1 µM is 61%. The inhibition at 10 µM in data set [2] (10 μM, read-out: RHUCX2 % Inh. at Dose) is 100%. The inhibition at 1 µM in data set [3] (1 μM) is 65%. In data set [3] (10 μM), the inhibition at 10 µM stood at 62%. The IC50 in data set [4] worked out at 130 nM.
Regarding `CS(=O)(=O)c1ccc(-c2cnn(-c3ccc([N+](=O)[O-])s3)c(=O)c2-c2ccc(F)cc2)cc1` [Example 105, 2-(5-Nitro-2-thienyl)-4-(4-fluorophenyl)-5-[4-(methylsulfonl)phenyl]-3(2H)-pyridazinone], the IC50 in data set [1] is 18 nM. Further, the “RHUCX2 % Inh. at Dose (μM)” value in data set [2] (0.1 μM) is listed as 52 @ 0.1%; in data set [2] (1 μM), 98 @ 1%. In addition, in data set [3] (1 μM), the “RHUCX1 % Inh. at Dose (μM)” value is on record as 85 @ 1%. For the same molecule, the “HWPX % Inhib. at Dose (μM)” value in data set [4] (1 μM) is 62 @ 1%.
For `CS(=O)(=O)c1ccc(-c2cnn(-c3ccc(F)cc3)c(=O)c2Oc2ccc(F)cc2)cc1` [Example 108, 2-(4-Fluorophenyl)-4-(4-fluorophenoxy)-5-[4-(methylsulfonyl)phenyl]-3(2H)-pyridazinone], the values for the IC50 in data set [1], in data set [2] and in data set [4] were 97 nM, 279 nM and 8000 nM, respectively. The inhibition at 100 µM in data set [3] (100 μM) amounted to 0%.
For `CC(/C=C/Cl)n1ncc(-c2ccc(S(N)(=O)=O)cc2)c(-c2ccc(F)cc2)c1=O` (stereo not shown) [Example 140, 2-(3-Chloro-1-methyl-2E-propenyl)-4-(4-fluorophenyl)-5-[4-(aminosulfonyl)phenyl]-3(2H)-pyridazinone], the IC50 in data set [1] stood at 10 nM; in data set [2], 22 nM; in data set [3], 3060 nM; in data set [4], 773 nM.
In turn, `NS(=O)(=O)c1ccc(-c2cnn(CC(F)=C(F)F)c(=O)c2-c2ccc(F)cc2)cc1` [Example 141, 2-(2,3,3-Trifluoro-2-propen-1-yl)-4-(4-fluorophenyl)-5-[4-(aminosulfonyl)phenyl]-3(2H)-pyridazinone] had a melting point of 173 to 175 °C. The IC50 in data set [1] came to 4 nM. Besides, the inhibition at 0.1 µM in data set [2] (setting [5]) came to 95%. Also, the inhibition at 1 µM in data set [2] (setting [6]) stood at 99%. Besides, the inhibition at 10 µM in data set [3] (10 μM) was 62%. Also, the inhibition at 100 µM in data set [3] (100 μM) came to 55%. Further, in data set [4] (setting [8]), the inhibition at 0.3 µM was found to be 56%.
As to `C=C(F)C(F)(F)n1ncc(-c2ccc(S(N)(=O)=O)cc2)c(-c2ccc(F)cc2)c1=O` [Example 142, 2-(1,1,2-Trifluoro-2-propenyl)-4-(4-fluorophenyl)-5-[4-(aminosulfonyl)phenyl]-3(2H)-pyridazinone], the melting point was in the range of 230 to 232 °C. In addition, in data set [1], the IC50 came to 88 nM. Also, the inhibition at 0.01 µM in data set [2] (0.01 μM, read-out: RHUCX2 % Inh. at Dose) is 32%. The inhibition at 0.1 µM in data set [2] (setting [5]) was found to be 45%. For the same molecule, in data set [2] (setting [6]), the inhibition at 1 µM was 96%. The inhibition at 1 µM in data set [3] (1 μM) was 53%. Further, the inhibition at 10 µM in data set [3] (10 μM) turned out to be 80%. For the same molecule, in data set [4], the concentration for half-maximal inhibition (IC50) came to 7530 nM.
As to `NS(=O)(=O)c1ccc(-c2cnn(CC3=CCCCC3)c(=O)c2-c2ccc(F)cc2)cc1` [Example 145, 2-(1-Cyclohexenylmethyl)-4-(4-fluorphenyl)-5-[4-(aminosulfonyl)phenyl]-3(2H)-pyridazinone], the IC50 was 9 nM in data set [1] and 238 nM in data set [3]. For the same molecule, the “RHUCX2 % Inh. at Dose (μM)” value is 56 @ 0.01% in data set [2] (0.01 μM) and 86 @ 0.1% in data set [2] (0.1 μM). The “HWPX % Inhib. at Dose (μM)” value in data set [4] (0.3 μM) was 30 @ .3%; in data set [4] (1 μM), 72 @ 1%.
The molecule `CC(c1ccc(F)c(F)c1F)n1ncc(-c2ccc(S(N)(=O)=O)cc2)c(-c2ccc(F)cc2)c1=O` (stereo not drawn) [Example 146, 2-(α-Methyl-2,3,4-trifluorobenzyl)-4-(4-fluorophenyl)-5-[4-(aminosulfonyl)phenyl]-3(2H)-pyridazinone] yielded a melting point of 192 to 194 °C. In data set [1], the half-maximal inhibitory concentration (IC50) turned out to be 44 nM. The inhibition at 0.1 µM in data set [2] (setting [5]) was 73%. Also, the inhibition at 1 µM in data set [2] (setting [6]) is 100%. Also, the inhibition at 1 µM in data set [3] (1 μM) is 53%. For the same molecule, the inhibition at 10 µM in data set [3] (10 μM) is 82%. Also, in data set [4] (3 μM, read-out: HWPX % Inhib. at Dose), the inhibition at 3 µM was 46%. The inhibition at 10 µM in data set [4] (setting [7]) worked out at 84%.
Molecule `CC(c1cc(F)cc(F)c1)n1ncc(-c2ccc(S(N)(=O)=O)cc2)c(-c2ccc(F)cc2)c1=O` (stereo not drawn) [Example 147, 2-(α-Methyl-3,5-difluorobenzyl)-4-(4-fluorophenyl)-5-[4-(aminosulfonyl)phenyl]-3(2H)-pyridazinone] had a melting point of 139 to 141 °C. The IC50 in data set [1] is 29 nM. The inhibition at 0.03 µM in data set [2] (0.03 μM, read-out: RHUCX2 % Inh. at Dose) turned out to be 0%. For the same molecule, the inhibition at 0.1 µM in data set [2] (setting [5]) came out at 64%. Further, the inhibition at 1 µM in data set [2] (setting [6]) is 100%. For the same molecule, in data set [3], the IC50 was 67 nM. Besides, the inhibition at 0.3 µM in data set [4] (setting [8]) turned out to be 84%.
Consider `NS(=O)(=O)c1ccc(-c2cnn(Cc3cccc(F)c3)c(=O)c2-c2ccc(F)cc2)cc1` [Example 149, 2-(3-Fluorobenzyl)-4-(4-fluorophenyl)-5-[4-(aminosulfonyl)phenyl]-3(2H)-pyrdazinone], for which the IC50 in data set [1] is 30 nM; in data set [2], 3 nM. The “RHUCX1 % Inh. at Dose (μM)” value in data set [3] (1 μM) is 40 @ 1%; in data set [3] (10 μM), 45 @ 10%. Further, the entries for the “HWPX % Inhib. at Dose (μM)” value in data set [4] (3 μM) and in data set [4] (10 μM) were 34 @ 3% and 89 @ 10%, respectively.
With `CS(=O)(=O)c1ccc(-c2cnn(-c3ccc(F)cc3)c(=O)c2COc2ccc(F)cc2)cc1` [Example 194, 2-(4-Fluorophenyl)-4-(4-fluolophenoxymethyl)-5-[4-(methylsulfonyl)phenyl]-3(2H)-pyridazinone], the figures for the IC50 in data set [1] and in data set [4] were 69 nM and 28100 nM, respectively. The “RHUCX2 % Inh. at Dose (μM)” value in data set [2] (0.1 μM) was 72 @ 0.1%; in data set [2] (1 μM) it was 73 @ 1%; in data set [2] (10 μM), 90 @ 10%. In addition, the “RHUCX1 % Inh. at Dose (μM)” value in data set [3] (100 μM) is 35 @ 100%.
